pEC50: −log10 of the molar value.
How the values were obtained:
[1] = tested on: full-thickness flank skin from the fetal rats; assay: Transepidermal water loss (TEWL) of fetal rat skin explants in organ culture (barrier function); assay type: cell-based, Sprague-Dawley rats; settings: for pEC50: Rattus norvegicus, read-out: concentration of half-maximal effect on barrier development (TEWL); for pEC50 / concentration of maximal effect on barrier development (TEWL): dose response, FIGS. 4a-4c; for effect on TEWL / barrier function: 50 μM
Method: Timed pregnant Sprague-Dawley rats (plug date=day 0) were obtained from Simonsen (Gilroy, Calif., USA) and fetuses were delivered prematurely on day 17. Transepidermal water loss (TEWL) was measured in excised full-thickness flank skin from the fetal rats after various times in culture. The skin explants were placed dermis-side down onto collagen membrane inserts (3μ pore size) in medium M-199 (serum-free), and submerged, and the lateral edges and dermal surface were sealed with petrolatum, such that water loss occurred only through the epidermal surface. Explant samples were weighed hourly, at ambient temperature (24±3° C.) and humidity (40±5%), over 6 hours using a Cahn balance (sensitivity 0.001 mg). TEWL levels are reported as milligrams of water lost per square millimeter of epidermal surface per hour. Fatty acids and clofibrate (p-chlorophenoxyisobutyric acid) were added to the medium bound to 0.5% (weight/volume) bovine serum albumin (BSA). Isoprenoids and oxysterols were added in ethanol (≦0.1%) and juvenile hormone III was added as a dimethylsulfoxide (DMSO) solution (≦0.1%). Control explants were incubated in the presence of the appropriate vehicle (≦0.1% DMSO or ethanol, and/or ≦0.5% BSA). Skin explants from gestational day 17 rats were incubated in the presence of either various activators or vehicle, and transepidermal water loss was measured after two days. The activators and the concentrations at which they were used were as follows: […]

[2] = tested on: Skin explants from gestational day 17 rats; assay: Light and electron microscopy of fetal rat skin explants (epidermal maturation); assay type: cell-based; settings: 48 hours
Method: Samples for light microscopy were fixed in modified Karnovsky's solution, plastic-embedded, and 0.5 μm sections were stained with toluidine. Samples for electron microscopy were minced into 1 mm^3 pieces, fixed in modified Karnovsky's fixative, and processed. Sections were stained with uranyl acetate and lead citrate, post-fixed in ruthenium tetroxide, and examined using a Zeiss 10A electron microscope.
Explants incubated in various media woe examined by light microscopy. The incubation di included control medium (containing no activators) and various media individually containing 300 μM clofibrate, 100 μM juvenile hormone III, 300 μM oleic acid, 30 μM linoleic acid, 50 μM farnesol, and various concentrations of 9-cis-retinoic acid, all-trans-retinoic acid, and 1,25-dihydroxy vitamin D3.
Observations were then made of the ultrastructural maturation of the outer epidermis in explants that had been incubated in the various media and then post-fixed in ruthenium tetroxide. Media identical to those of the preceding paragraph were used, excluding the retinoic acid-containing and 1,25-dihydroxy vitamin D3-containing media.

involucrin protein = assay: Involucrin protein level in keratinocytes by Western Blot; assay type: cell-based, Human; settings: 0 to 15 μM, 0.03 mM Ca++, 24 hours
Method: Measurements of the level of the involucrin protein itself were performed in the culture medium by Western Blot. Various incubations were performed, in media containing clofibrate at concentrations ranging from 0 (vehicle only) to 400 μM and calcium ion at both 0.03 mM and 1.2 mM. The results are shown in FIG. 9a for tests with calcium ion at 0.03 mM, and in FIG. 9b for tests with calcium ion at 1.2 mM. In these figures, the protein contents are expressed as percents of the respective measurements taken from media incubated for the same period of time but in the absence of clofibrate.
The procedures of Example 8 were followed, and measurements were taken on the involucrin protein levels from cells incubated at various concentrations of farnesol and juvenile hormone III ranging from 0 (vehicle only) to 15 μM, in media containing 0.03 mM and 1.2 mM calcium ion, for 24 hours. The results are shown in FIG. 10 for farnesol and FIG. 11 for juvenile hormone III, in 0.03 mM Ca^++.
Protein concentration was assessed by protein electrophoresis and Western blotting. Cells were lysed is 2% SDS and the lysate sonicated. Protein determinations were made by use of a Bicinchoninic add protein assay (Pierce Chemical Company, Rockford, Ill. USA). Following protein determination, equal amounts at protein (50 μg) were separated by electrophoresis an 7.5% polyacrylamide gels and electroblotted onto polyvinylidene […] membranes (0.2-μ, obtained from Bio-Rad Laboratories Hercules, Calif., USA). Involucrin protein was detected by incubation over-night at 4° C. C. with a polyclonal rabbit anti-human involucrin antibody (1:1000 dilution). The involucrin-specific bands on the autoradiograms were quantitated by densitometry by densitometry. Transglutaminase protein expression was measured in a similar mmaner, using stacking, sample and running buffers containing 4 M urea, and the gels following electrophoresis were washed in 4 M urea, 25 mM TRIS-HCl, pH 7.4, 7.5 mM NaCl, 0.1 mM dithiothreitol (DTT), and 2 mM ethylenediamine tetraacetic acid for 90 minutes prior to electoblotting, allowing the transglutaminase to be detected by antibody. Specific bands on the autoradiograms were quantified by densitometry.

[3] = tested on: Normal human keratinocytes; assay: Cornified envelope formation (35S incorporation) in keratinocytes; assay type: cell-based; settings: 10 μM, 0.03 mM calcium, 48-hour
involucrin mRNA = assay: Involucrin mRNA in keratinocytes by Northern Blot; assay type: cell-based, Human; settings: low calcium (0.03 mM), 24 hours, 10 μM
Method: (§1) Human keratinocyte cells were incubated in culture containing calcium at a concentration of 0.03 mM Ca^++ (a level that is too low to induce differentiation). Also included in the culture medium were clofibrate at 400 μM or ETYA at 10 μM and 20 μM, while separate cell cultures were maintained as controls with neither clofibrate nor ETYA. The production of mRNA for both involucrin and transglutaminase was measured at intervals over a 48-hour time period (0, 6, 12, 24, and 48 hours) by Northern Blot analysis. In each case, the lighter bars represent the control cells and the darker bars the cells incubated in the clofibrate-containing medium. The degree of mRNA generated is expressed as a percent of the control at zero hours.
(§2) Human epidermis was isolated from newborn foreskins and keratinocytes were plated in serum-free keratinocyte growth medium (“KGM”; Clonetics, San Diego, Calif. USA), using conventional techniques. Cells were treated with either the test compounds in vehicle or vehicle alone (<0.1% ethanol) for 24 or 48 hours. The test compounds were obtained from Sigma Chemical Co. (St. Louis. Mo. USA) and were stored as 15 mM stock solutions at −20° C. Mevalonate was solubilized in sterile water.
(§3) Total RNA was isolated by using TRIZOL (Sigma Chemical Co.), following the manufacturer's protocol. Ethanol-precipitate RNA pellets were suspended in sterile, diethylpyrocarbonate (DEPC)-treated water, and RNA was quantified by absorbance at 260 nm using the 260/280 nm ratio as an index of purity. RNA (15 μg per sample) was size fractionated through a 1% agarose gel containing 2.2 M formaldehyde. RNA integrity was visualized following acridine orange staining of the gel following electrophoresis. The RNA was transfered to a nylon membrane that was subsequently baked at 80° C. for 2 hours. Blots were hybridized with the appropriate ^32p-labeled probe overnight at 65° C. Washes were then performed in a solution containing 0.1% SSC and 0.1% sodium dedecyl sulfate (SDS) for 20 minutes at room temperature, followed by a 20-minute wash at 65° C. Autoradiography was performed at −70° C. Blots were probed with β-actin to confirm equal loading. Appropriate bands were quantified by densitometry.
(§4) Northern blot analyses were performed on keratinocytes maintained in low calcium (0.03 mM) and incubated for 24 hours in the presence of vehicle alone (<0.1% ethanol) or vehicle containing 25-hydroxycholesterol (10 μM), 22(R)-hydroxycholesterol (10 μM) cholesterol (10 μM), or mevalonate (500 μM) (individually). The mRNA levels of involucrin (“INV”) and transglutaminase (“TG'ase”) are shown in the bar graph of FIG. 14a, the INV indicated by clear bars and the TG'ase by shaded bars, both with error limits shown.

transglutaminase mRNA = assay: Transglutaminase mRNA in keratinocytes by Northern Blot; assay type: cell-based, Human; settings: low calcium (0.03 mM), 24 hours, 10 μM
Method: as §1, §2, §3, §4

| SMILES | pEC50 [1] | concentration of maximal effect on barrier development (TEWL) [1] | effect on TEWL / barrier function ([1]; two days) | other results |
| --- | --- | --- | --- | --- |
| CCCCCCCC/C=C\CCCCCCCC(=O)O [oleic acid] | ~3.60 | approximately 500 μM | – | light microscopy of the epidermis ([2]; 300 μM): had both a multi-layered stratum granulosum and a stratum corneum |
| C=CC(C)(O)CCC=C(C)CCC=C(C)C (centres unmarked) [nerolidol] | – | – | – | effect on TEWL / barrier formation ([1]; 100 μM, two days): neither mevalonate at 200 μM, 25-hydroxy cholesterol at 50 μM), squalene at 50 μM, geranylgeraniol at 50 μM, cis-farnesol at 50 μM, nor nerolidol at 100 μM significantly affected barrier function |
| CC(C)=CCC/C(C)=C/CC/C(C)=C/CO [farnesol, 3,7,11,trimethyl-2,6,10-dodecatrienol] | ~4.70 | approximately 50 μM | markedly decreased the TEWL | light microscopy of the epidermis ([2]; 50 μM): had both a multi-layered stratum granulosum and a stratum corneum; involucrin protein content (involucrin protein): substantial increases in involucrin protein content; rate of cornified envelope formation [3]: substantial increases in the rate of cornified envelope formation |
| CC(C)=CCC/C(C)=C\CC/C(C)=C\CO [cis-farnesol] | – | – | neither mevalonate at 200 μM, 25-hydroxy cholesterol at 50 μM), squalene at 50 μM, geranylgeraniol at 50 μM, cis-farnesol at 50 μM, nor nerolidol at 100 μM significantly affected barrier function | – |
| CC(C)CC[C@H](O)[C@@H](C)[C@H]1CC[C@H]2[C@@H]3CC=C4C[C@@H](O)CC[C@]4(C)[C@H]3CC[C@]12C [22(S)-hydroxycholesterol] | – | – | – | involucrin (INV) mRNA level compared to the vehicle alone (involucrin mRNA): No effect; transglutaminase (TG'ase) mRNA level compared to the vehicle alone (transglutaminase mRNA): No effect |
| CC(C)=CCC/C(C)=C/CC/C(C)=C/CC/C=C(\C)CC/C=C(\C)CCC=C(C)C [squalene] | – | – | neither mevalonate at 200 μM, 25-hydroxy cholesterol at 50 μM), squalene at 50 μM, geranylgeraniol at 50 μM, cis-farnesol at 50 μM, nor nerolidol at 100 μM significantly affected barrier function | – |
| CCCCC[C@H](O)/C=C/[C@H]1C(=O)C=C[C@@H]1C/C=C\CCCC(=O)O [prostaglandin J2] | – | – | – | effect on TEWL / barrier development ([1]; 10 μM, two days): had no effect |
| CC(C)=CCC/C(C)=C/CC/C(C)=C/CC/C(C)=C/CO [geranylgeraniol] | – | – | neither mevalonate at 200 μM, 25-hydroxy cholesterol at 50 μM), squalene at 50 μM, geranylgeraniol at 50 μM, cis-farnesol at 50 μM, nor nerolidol at 100 μM significantly affected barrier function | – |
| CCCCC/C=C\C/C=C\CCCCCCCC(=O)O [linoleic acid] | ~4.90 | approximately 30 μM | – | effect on TEWL ([1]; explants incubated in 300 μM for two days, p<0.005, n=8): markedly decreased the TEWL; light microscopy of the epidermis ([2]; 30 μM): had both a multi-layered stratum granulosum and a stratum corneum |
